Measured values from patent US9693997B2, “Antiviral compounds” (priority 2013, dated 2017).
Where a name gives a salt, the structure may show the parent alone.

Tests used:
Experiment in all cases: microbe, parasite or virus in culture
[1] = tested on: Pseudotyped HCV GT1b particles (HCVpp), entry into Huh7-high CD81 cells; type: cell-based, HCV GT1b Con1 strain; details: Hepatitis C virus, GT1B, 72 h, read-out: HCVpp GT-1b (EC50, μM)
[2] = tested on: pseudotyped VSV G particles (VSVpp) in Huh7-high CD81 cells; type: cell-based, vesicular stomatitis virus; details: Vesicular stomatitis virus, 72 h, read-out: VSVpp (EC50, μM)
[3] = tested on: Pseudotyped HCV GT1a particles (HCVpp), entry into Huh7-high CD81 cells; type: cell-based, HCV GT1a H77 strain; details: Hepatitis C virus, 72 h, read-out: HCVpp GT-1a (EC50, μM)

Row | SMILES | EC50 [1] | EC50 [2] | EC50 [3]
1 | Nc1nc(Nc2cc(Cl)c(-c3ccc(S(=O)(=O)N[C@H]4CC[C@H](O)CC4)cc3)c(C(F)(F)F)c2)n[nH]1 [Compound 184, 4′-(5-amino-1H-1,2,4-triazol-3-ylamino)-2′-chloro-N-(trans-4-hydroxycyclohexyl)-6′-(trifluoromethyl)biphenyl-4-sulfonamide] | 0.05 µM | > 10 µM | 0.028 µM
2 | COc1ccc(-c2c(Cl)cc(Nc3n[nH]c(N)n3)cc2C(F)(F)F)cc1S(=O)(=O)N1CCOCC1 [Compound 177, N3-(2-chloro-4′-methoxy-3′-(morpholinosulfonyl)-6-(trifluoromethyl)biphenyl-4-yl)-1H-1,2,4-triazole-3,5-diamine] | 0.018 µM | 23.4 µM | 0.003 µM
3 | COc1ccc(-c2c(Cl)cc(Nc3n[nH]c(N)n3)cc2C(F)(F)F)cc1S(=O)(=O)NC(C)(C)CO [Compound 218, 4′-(5-Amino-1H-[1,2,4]triazol-3-ylamino)-6′-chloro-4-methoxy-2′-trifluoromethyl-biphenyl-3-sulfonic acid (2-hydroxy-1,1-dimethyl-ethyl)-amide] | 0.005 µM | 20.3 µM | 0.003 µM
4 | N#Cc1cccc(-c2c(Cl)cc(Nc3n[nH]c(N)n3)cc2Cl)c1 [Compound 103, 4′-(5-Amino-1H-[1,2,4]triazol-3-ylamino)-2′,6′-dichloro-biphenyl-3-carbonitrile] | 0.269 µM | 13.3 µM | 0.025 µM
5 | CN(C)S(=O)(=O)c1ccc(-c2c(Cl)cc(Nc3n[nH]c(N)n3)cc2C(F)(F)F)cc1 [Compound 185, 4′-(5-amino-1H-1,2,4-triazol-3-ylamino)-2′-chloro-N,N-dimethyl-6′-(trifluoromethyl)biphenyl-4-sulfonamide] | 0.052 µM | 11.7 µM | 0.015 µM
6 | Nc1nc(Nc2cc(Cl)c(-c3ccccc3F)c(Cl)c2)n[nH]1 [Compound 287, N3-(2,6-dichloro-2′-fluorobiphenyl-4-yl)-1H-1,2,4-triazole-3,5-diamine] | 0.366 µM | 13 µM | 0.005 µM
7 | CC(C)S(=O)(=O)c1ccc(-c2c(F)cc(Nc3n[nH]c(N)n3)cc2Cl)cc1 [Compound 23, N*3*-[2-Chloro-6-fluoro-4′-(propane-2-sulfonyl)-biphenyl-4-yl]-1H-[1,2,4]triazole-3,5-diamine] | 0.092 µM | > 10 µM | 0.023 µM
8 | Nc1nc(Nc2cc(Cl)c(-c3ccc(OC(F)(F)F)cc3)c(Cl)c2)n[nH]1 [Compound 91, N-3-(2,6-Dichloro-4′-trifluoromethyoxy-biphenyl-4-yl)-1H[1,2,4]triazole-3,5-diamine] | 1.13 µM | 23.3 µM | 0.065 µM
9 | Nc1nc(Nc2ccc(-c3ccc(NC(=O)CCCC[C@@H]4SC[C@@H]5NC(=O)N[C@@H]54)cc3)cc2)n[nH]1 (stereo in doubt) [Compound 54, 5-((3aS,4S,6aR)-2-Oxo-hexaneahydro-thieno[3,4-d]imidazol-4-yl)-pentanoic acid [4′-(5-amino-1H-[1,2,4]triazol-3-ylamino)-biphenyl-4-yl]-amide] | 10 µM | > 10 µM | 5.73 µM
10 | CS(=O)(=O)Cc1ccc(-c2c(Cl)cc(Nc3n[nH]c(N)n3)cc2Cl)cc1 [Compound 31, N*3*-(2,6-Dichloro-4′-methanesulfonylmethyl-biphenyl-4-yl)-1H-[1,2,4]triazole-3,5-diamine] | 0.086 µM | 3.23 µM | 0.004 µM
11 | Nc1nc(Nc2cc(Cl)c(-c3ccccc3Cl)c(Cl)c2)n[nH]1 [Compound 101, N-3-(2,6,2′-Trichloro-biphenyl-4-yl)-1H-[1,2,4]triazole-3,5-diamine] | 0.514 µM | 13.2 µM | 0.037 µM
12 | CC(C)(C)NS(=O)(=O)c1ccc(-c2c(Cl)cc(Nc3n[nH]c(N)n3)cc2C(F)(F)F)cc1 [Compound 219, 4′-(5-Amino-1H-[1,2,4]triazol-3-ylamino)-6′-chloro-2′-trifluoromethyl-biphenyl-4-sulfonic acid tert-butylamide] | – | 16.2 µM | 0.011 µM
13 | CC(C)S(=O)(=O)c1ccc(-c2c(Cl)cc(Nc3n[nH]c(N)n3)cc2C(F)(F)F)cc1 [Compound 181, N3-(2-chloro-4′-(isopropylsulfonyl)-6-(trifluoromethyl)biphenyl-4-yl)-1H-1,2,4-triazole-3,5-diamine] | 0.059 µM | – | 0.021 µM
14 | CC(C)(C)NS(=O)(=O)c1ccc(-c2c(Cl)cc(Nc3n[nH]c(N)n3)cc2C(F)(F)F)cc1OC(F)(F)F [Compound 217, 4′-(5-Amino-1H-[1,2,4]triazol-3-ylamino)-6′-chloro-3-trifluoromethoxy-2′-trifluoromethylbiphenyl-4-sulfonic acid tert-butylamide] | – | 7.5 µM | 0.003 µM
15 | CC1(O)CCN(S(=O)(=O)c2ccc(-c3c(Cl)cc(Nc4n[nH]c(N)n4)cc3C(F)(F)F)cc2)CC1 [Compound 66, 1-[4′-(5-Amino-1H-[1,2,4]triazol-3-ylamino)-6′-chloro-2′-trifluoromethyl-biphenyl-4-sulfonyl]-4-methyl-piperidin-4-ol] | 0.101 µM | 7.32 µM | –
16 | CNC(=O)c1ccc(-c2c(Cl)cc(Nc3n[nH]c(N)n3)cc2C(F)(F)F)cc1 [Compound 189, 4′-(5-amino-1H-1,2,4-triazol-3-ylamino)-2′-chloro-N-methyl-6′-(trifluoromethyl)biphenyl-4-carboxamide] | 0.08 µM | 36.8 µM | –
17 | COc1ccc(-c2c(Cl)cc(Nc3n[nH]c(N)n3)cc2C(F)(F)F)cc1S(=O)(=O)NC(C)(C)C [Compound 216, 4′-(5-Amino-1H-[1,2,4]triazol-3-ylamino)-6′-chloro-4-methoxy-2′-trifluoromethyl-biphenyl-3-sulfonic acid tert-butylamide] | 0.004 µM | 6.48 µM | –
18 | CC(C)(C)OC(=O)N1CCC(Oc2ccc(-c3c(Cl)cc(Nc4n[nH]c(N)n4)cc3Cl)cc2)CC1 [Compound 268, 4-[4′-(5-Amino-1H-[1,2,4]triazol-3-ylamino)-2′,6′-dichloro-biphenyl-4-yloxy]-piperidine-1-carboxylic acid tert-butyl ester] | 0.17 µM | > 10 µM | –
19 | COc1ccc(-c2c(Cl)cc(Nc3n[nH]c(N)n3)cc2C(F)(F)F)cc1S(=O)(=O)N1CCCC1 [Compound 203, N3-(2-chloro-4′-methoxy-3′-(pyrrolidin-1-ylsulfonyl)-6-(trifluoromethyl)biphenyl-4-yl)-1H-] | 0.008 µM | 10.6 µM | –
20 | Nc1nc(Nc2cc(Cl)c(-c3ccc(C(=O)NCCO)c(F)c3)c(C(F)(F)F)c2)n[nH]1 [Compound 293, 4′-(5-amino-1H-1,2,4-triazol-3-ylamino)-2′-chloro-3-fluoro-N-(2-hydroxyethyl)-6′-(trifluoromethyl)biphenyl-4-carboxamide] | 0.139 µM | 15.7 µM | –
21 | Nc1nc(Nc2cc(Cl)c(-c3ccc([N+](=O)[O-])cc3)c(Cl)c2)n[nH]1 [Compound 83] | 0.532 µM | 4.34 µM | –
22 | CC(C)C(=O)Nc1cccc(-c2c(Cl)cc(Nc3n[nH]c(N)n3)cc2Cl)c1 [Compound 252, N-[4′-(5-amino-1H-[1,2,4]triazol-3-ylamino)-2′,6′-dichloro-biphenyl-3-yl]-isobutyramide] | 0.067 µM | > 10 µM | –
23 | CNC(=O)c1cc(-c2c(Cl)cc(Nc3n[nH]c(N)n3)cc2C(F)(F)F)ccc1F [Compound 292, 4′-(5-amino-1H-1,2,4-triazol-3-ylamino)-2′-chloro-4-fluoro-N-methyl-6′-(trifluoromethyl)biphenyl-3-carboxamide] | 0.647 µM | 29.2 µM | –
24 | Nc1nc(Nc2cc(Cl)c(-c3ccc(S(=O)(=O)NCCO)cc3)c(Cl)c2)n[nH]1 [Compound 160, 4′-(5-Amino-1H-[1,2,4]triazol-3-ylamino)-2′,6′-dichloro-biphenyl-4-sulfonic acid (2-hydroxy-ethyl)-amide] | 0.063 µM | 10.6 µM | –
25 | Nc1nc(Nc2cc(Cl)c(-c3cccc(Cl)c3Cl)c(Cl)c2)n[nH]1 [Compound 109, N-3-(2,6,2′,3′-Tetrachloro-biphenyl-4-yl)-1H-[1,2,4]triazole-3,5-diamine] | 0.74 µM | 46.5 µM | –
26 | Nc1nc(Nc2cc(Cl)c(-c3ccc(S(=O)(=O)NC4CC4)cc3)c(C(F)(F)F)c2)n[nH]1 [Compound 169, 4′-(5-amino-1H-1,2,4-triazol-3-ylamino)-2′-chloro-N-cyclopropyl-6′-(trifluoromethyl)biphenyl-4-sulfonamide] | 0.011 µM | 3.55 µM | –
27 | CC(C)(C)N1CC(OC(=O)Nc2ccc(-c3c(Cl)cc(Nc4n[nH]c(N)n4)cc3C(F)(F)F)cc2)C1 [Compound 236, [4′-(5-amino-1H-[1,2,4]triazol-3-ylamino)-2′-chloro-6′-trifluoromethyl-biphenyl-4-yl]-carbamic acid 1-tert-butyl-azetidin-3-yl ester] | 0.045 µM | > 10 µM | –
28 | Nc1nc(Nc2cc(Cl)c(-c3ccc(S(=O)(=O)C4CCNCC4)cc3)c(C(F)(F)F)c2)n[nH]1 [Compound 20, N3-(2-chloro-4′-(piperidin-4-ylsulfonyl)-6-(trifluoromethyl)biphenyl-4-yl)-1H-1,2,4-triazole-3,5-diamine hydrochloride] | 0.053 µM | 3.46 µM | –
29 | Nc1nc(Nc2cc(Cl)c(-c3ccc(S(=O)(=O)C4CC4)cc3)c(C(F)(F)F)c2)n[nH]1 [Compound 188, N3-(2-chloro-4′-(cyclopropylsulfonyl)-6-(trifluoromethyl)biphenyl-4-yl)-1H-1,2,4-triazole-3,5-diamine] | 0.089 µM | 0.09 µM | –
30 | Nc1nc(Nc2ccc(-c3ccc(F)cc3)c(C(F)(F)F)c2)n[nH]1 [Compound 151, N*3*-(4′-Fluoro-2-trifluoromethyl-biphenyl-4-yl)-1H-[1,2,4]triazole-3,5-diamine] | 0.356 µM | 26.5 µM | –
